Test results as given in ChEMBL document CHEMBL1201862, “PubChem BioAssay data set” (2004).
Calls of active or inactive are those of the source.

Assays:
[1] = molecular target: T1, Tyrosine-protein phosphatase non-receptor type 11 (Homo sapiens, UniProt Q06124); assay: PTPN11 enzyme inhibitors – biochemical, selectivity assay for STEP inhibitor project, dose response (AID 602367); format: functional; settings: read-out: IC50_Mean
T1 sequence (Q06124 whole entry): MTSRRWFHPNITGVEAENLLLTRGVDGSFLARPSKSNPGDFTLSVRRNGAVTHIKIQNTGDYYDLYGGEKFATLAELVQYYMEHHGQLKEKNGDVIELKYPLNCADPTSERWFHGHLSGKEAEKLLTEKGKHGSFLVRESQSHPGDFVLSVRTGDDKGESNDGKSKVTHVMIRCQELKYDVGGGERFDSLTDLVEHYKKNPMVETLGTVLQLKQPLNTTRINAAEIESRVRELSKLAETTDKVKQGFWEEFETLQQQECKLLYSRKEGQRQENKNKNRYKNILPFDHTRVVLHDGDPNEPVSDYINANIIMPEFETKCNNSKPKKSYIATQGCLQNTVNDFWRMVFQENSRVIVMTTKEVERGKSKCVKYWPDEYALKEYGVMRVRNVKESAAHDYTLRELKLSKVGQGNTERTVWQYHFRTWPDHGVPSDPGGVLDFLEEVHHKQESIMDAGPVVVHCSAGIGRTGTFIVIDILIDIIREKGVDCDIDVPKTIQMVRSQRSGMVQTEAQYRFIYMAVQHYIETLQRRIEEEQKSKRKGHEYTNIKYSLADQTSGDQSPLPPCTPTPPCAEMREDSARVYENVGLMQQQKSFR

[2] = molecular target: T2, Tyrosine-protein phosphatase non-receptor type 5 (Homo sapiens, UniProt P54829); assay: PTPN5 enzyme inhibition – biochemical, fluorescence intensity, uHTS hits, confirmation (AID 602372); format: functional; settings: read-out: IC50_Mean
T2 sequence (P54829 whole entry): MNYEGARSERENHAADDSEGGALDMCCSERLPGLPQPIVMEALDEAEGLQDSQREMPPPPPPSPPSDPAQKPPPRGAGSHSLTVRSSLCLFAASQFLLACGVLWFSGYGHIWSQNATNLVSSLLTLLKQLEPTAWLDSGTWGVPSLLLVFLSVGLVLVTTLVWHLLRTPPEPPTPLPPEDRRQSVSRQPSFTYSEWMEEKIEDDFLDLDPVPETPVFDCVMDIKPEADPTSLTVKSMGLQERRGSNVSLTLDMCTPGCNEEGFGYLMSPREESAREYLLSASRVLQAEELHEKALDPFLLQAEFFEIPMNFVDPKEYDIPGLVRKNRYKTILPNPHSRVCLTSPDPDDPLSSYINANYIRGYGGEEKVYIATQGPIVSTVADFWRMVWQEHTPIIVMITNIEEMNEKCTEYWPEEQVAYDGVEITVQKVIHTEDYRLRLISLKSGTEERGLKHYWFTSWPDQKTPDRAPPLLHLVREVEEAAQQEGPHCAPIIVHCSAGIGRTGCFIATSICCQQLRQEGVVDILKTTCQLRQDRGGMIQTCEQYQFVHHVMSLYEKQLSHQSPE

[3] = molecular target: Dual specificity protein phosphatase 3 (Homo sapiens, UniProt P51452); assay: VHR phosphatase inhibition, dose response, selectivity assay for STEP inhibitor project, biochemical (AID 602374); format: functional; settings: read-out: IC50_Mean
[4] = molecular target: T3, Short transient receptor potential channel 4 (Mus musculus, UniProt Q9QUQ5); assay: calcium entry via TRPC4 opening agents – cell-based, HEK293 TRPC4/mu-opioid, Fluo-4 calcium, dose response (AID 434937); format: functional
T3 sequence (Q9QUQ5 whole entry): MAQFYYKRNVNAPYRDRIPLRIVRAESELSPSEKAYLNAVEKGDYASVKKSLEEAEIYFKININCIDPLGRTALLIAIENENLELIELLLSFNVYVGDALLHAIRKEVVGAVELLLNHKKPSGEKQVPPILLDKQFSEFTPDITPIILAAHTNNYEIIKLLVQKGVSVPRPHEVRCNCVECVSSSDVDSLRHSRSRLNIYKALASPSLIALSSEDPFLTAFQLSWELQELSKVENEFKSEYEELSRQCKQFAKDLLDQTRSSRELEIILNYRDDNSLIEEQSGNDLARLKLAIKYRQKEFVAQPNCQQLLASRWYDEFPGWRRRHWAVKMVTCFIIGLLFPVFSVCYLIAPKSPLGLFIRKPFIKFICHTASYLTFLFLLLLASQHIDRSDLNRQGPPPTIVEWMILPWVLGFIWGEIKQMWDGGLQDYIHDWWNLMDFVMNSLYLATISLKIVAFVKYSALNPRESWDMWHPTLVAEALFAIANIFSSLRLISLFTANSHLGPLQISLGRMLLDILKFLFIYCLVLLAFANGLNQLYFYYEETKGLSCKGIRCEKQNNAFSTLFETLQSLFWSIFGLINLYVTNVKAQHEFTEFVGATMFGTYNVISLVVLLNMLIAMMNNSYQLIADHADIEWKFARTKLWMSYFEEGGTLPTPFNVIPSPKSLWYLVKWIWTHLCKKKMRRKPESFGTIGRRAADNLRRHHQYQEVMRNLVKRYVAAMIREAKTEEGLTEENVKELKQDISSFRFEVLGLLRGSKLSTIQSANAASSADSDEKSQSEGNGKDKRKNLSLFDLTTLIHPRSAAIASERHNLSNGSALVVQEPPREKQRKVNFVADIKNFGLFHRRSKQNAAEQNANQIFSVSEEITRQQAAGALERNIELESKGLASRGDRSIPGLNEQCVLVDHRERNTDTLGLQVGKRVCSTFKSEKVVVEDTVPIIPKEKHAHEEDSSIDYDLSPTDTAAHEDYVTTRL

[5] = molecular target: Eukaryotic translation initiation factor 4E (Mus musculus, UniProt P63073); assay: blockers of eIF4G binding by eIF4E – biochemical, TR-FRET, dose response (AID 855); format: functional;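 further: potency for disrupting eIF4E binding to eIF4GI seen as loss of FRET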
[6] = molecular target: Glucose-6-phosphate 1-dehydrogenase (Homo sapiens, UniProt P11413); assay: inhibition of Homo sapiens G6PD, dose series – biochemical, fluorescence, selectivity assay for P. falciparum G6PD inhibitor project, dose response (AID 504792); format: functional
Beta-galactosidase = Beta-galactosidase (Escherichia coli, UniProt Q8VNN2); assay: PubChem AID 485352; format: functional
[7] = molecular target: T4, Type-1 angiotensin II receptor (Homo sapiens, UniProt P30556); assay: antagonism of angiotensin II type 1 receptor – cell-based, uHTS hits, selectivity assay for APJ receptor antagonist project, dose response (AID 463214); format: functional;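 further: antagonist potency against angiotensin II stimulated AT1 response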
T4 sequence (P30556 whole entry): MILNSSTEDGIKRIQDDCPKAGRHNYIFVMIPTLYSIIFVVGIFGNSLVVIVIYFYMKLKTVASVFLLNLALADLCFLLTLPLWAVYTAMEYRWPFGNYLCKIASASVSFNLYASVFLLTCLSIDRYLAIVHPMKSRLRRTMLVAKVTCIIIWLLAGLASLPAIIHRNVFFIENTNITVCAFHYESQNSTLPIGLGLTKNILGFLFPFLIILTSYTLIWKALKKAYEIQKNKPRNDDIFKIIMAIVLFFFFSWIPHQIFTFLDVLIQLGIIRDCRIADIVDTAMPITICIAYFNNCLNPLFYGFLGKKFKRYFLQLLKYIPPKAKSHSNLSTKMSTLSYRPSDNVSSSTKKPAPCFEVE

[8] = molecular target: T5, Small ubiquitin-related modifier 1 (Homo sapiens, UniProt P63165); assay: SUMO1 protein-protein binding blockers, potency – biochemical, FRET, dose response (AID 624383); format: functional; settings: read-out: IC50_Mean
[9] = molecular target: T5, Small ubiquitin-related modifier 1; assay: SUMO1 protein interaction blockers, potency – biochemical, fluorescence polarization, uHTS hits, dose response (AID 624382); format: functional; settings: read-out: IC50_Mean
Melanocortin receptor 4 = Melanocortin receptor 4 (Homo sapiens, UniProt P32245); format: functional, cell-based;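 further: Cell-based assay with luminescence read-out, confirmatory dose-response testing for agonist activity of biased ligands at MC4R; human U2OS cells with tagged receptor and beta-arrestin; potency of agonists that increase receptor coupling to beta-arrestin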
Galanin receptor type 3 = molecular target: T6, Galanin receptor type 3 (Homo sapiens, UniProt O60755); assay: Fluorescence-based cell-based primary high throughput dose response assay to identify antagonists of the Galanin Receptor 3 (GalR3).; format: functional
T6 sequence (O60755 whole entry): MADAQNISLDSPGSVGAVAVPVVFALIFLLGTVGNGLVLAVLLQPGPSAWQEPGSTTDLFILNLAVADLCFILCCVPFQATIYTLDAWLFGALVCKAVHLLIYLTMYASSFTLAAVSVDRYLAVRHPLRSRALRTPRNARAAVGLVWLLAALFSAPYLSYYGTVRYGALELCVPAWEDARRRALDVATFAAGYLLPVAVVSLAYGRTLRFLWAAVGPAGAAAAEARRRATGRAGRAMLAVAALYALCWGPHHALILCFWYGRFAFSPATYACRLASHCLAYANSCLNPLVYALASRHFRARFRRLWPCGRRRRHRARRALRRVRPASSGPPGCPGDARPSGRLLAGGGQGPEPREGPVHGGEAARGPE

cells = format: functional, cell-based; settings: HEK-CNG
[10] = molecular target: Dual specificity tyrosine-phosphorylation-regulated kinase 1A (Rattus norvegicus, UniProt Q63470); format: biochemical, Homo sapiens
H4 = assay: Luminescence Cell-Based Dose Response HTS to Identify Activators of 5'UTR Stem-Loop Driven Prion Protein mRNA Translation in H4 Neuroglioblastoma Cells. [Related pubchem assays: 1829 (Project Summary), 1814 (Primary HTS)]; format: functional; settings: Homo sapiens
[11] = Luminescence Cell-Based Dose Response HTS to Identify Activators of Luciferase Translation or Activity in H4 […] Cells. [Related pubchem assays: 1829 (Project Summary), 1814 (Primary HTS)]; format: functional
H9c2 = assay: cells; format: functional, cell-based; settings: Rattus norvegicus, H9c2, Myocardium;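 further: confirmatory concentration-response retest of ultra-high-throughput screening hits for modulation of myocardial damage; cell death induced by hydrogen peroxide oxidative stress; compound pretreatment for 60 min then peroxide exposure for 2 h; potency is for protecting the cells against peroxide damage rather than for killing them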
[12] = IGROV1 cell killing – plate reader, dry powder samples, PAX8 inhibitor project, dose response (AID 743043); format: functional, cell-based; settings: IGROV-1
Paired box protein Pax-8 = Paired box protein Pax-8 (Homo sapiens, UniProt Q06710); assay: PAX8 transcriptional activity inhibition in RMG-I – RMG-I cells, luciferase, cherry-pick, dose response (AID 687027); format: functional, cell-based;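 further: luciferase reporter driven by Pax8 target thyroperoxidase promoter measured by SteadyGlo luminescence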
[13] = OVCAR8 cell viability loss – plate reader, dry powder samples, PAX8 project, dose response (AID 743197); format: functional, cell-based; settings: OVCAR-8
[14] = molecular target: FAD-linked sulfhydryl oxidase ALR (Homo sapiens, UniProt P55789); assay: ALR-catalysed DTT oxidation blockers – biochemical, H2O2 detection, luminescence, cherry-pick, dose response (AID 493248)
Sequence of FAD-linked sulfhydryl oxidase ALR (P55789 whole entry): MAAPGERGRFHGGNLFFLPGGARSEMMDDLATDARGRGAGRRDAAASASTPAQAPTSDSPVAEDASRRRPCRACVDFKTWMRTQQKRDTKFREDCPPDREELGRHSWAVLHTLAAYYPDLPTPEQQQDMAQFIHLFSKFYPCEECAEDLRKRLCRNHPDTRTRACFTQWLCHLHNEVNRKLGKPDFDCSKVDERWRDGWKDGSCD

T5 sequence (P63165 whole entry): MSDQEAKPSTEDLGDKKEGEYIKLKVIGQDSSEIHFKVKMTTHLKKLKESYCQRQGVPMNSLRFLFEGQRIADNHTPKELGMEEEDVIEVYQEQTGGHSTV
Sequence of Melanocortin receptor 4 (P32245 whole entry): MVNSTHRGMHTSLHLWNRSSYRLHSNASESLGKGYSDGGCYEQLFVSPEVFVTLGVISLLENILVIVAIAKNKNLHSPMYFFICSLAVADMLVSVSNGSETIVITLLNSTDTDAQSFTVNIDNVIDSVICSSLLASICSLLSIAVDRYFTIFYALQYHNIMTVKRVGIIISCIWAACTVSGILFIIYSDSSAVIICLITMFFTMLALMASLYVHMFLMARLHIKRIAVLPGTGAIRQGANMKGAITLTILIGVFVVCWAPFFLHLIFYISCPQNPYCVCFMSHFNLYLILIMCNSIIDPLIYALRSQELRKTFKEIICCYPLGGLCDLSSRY
Sequence of Beta-galactosidase (Q8VNN2 whole entry): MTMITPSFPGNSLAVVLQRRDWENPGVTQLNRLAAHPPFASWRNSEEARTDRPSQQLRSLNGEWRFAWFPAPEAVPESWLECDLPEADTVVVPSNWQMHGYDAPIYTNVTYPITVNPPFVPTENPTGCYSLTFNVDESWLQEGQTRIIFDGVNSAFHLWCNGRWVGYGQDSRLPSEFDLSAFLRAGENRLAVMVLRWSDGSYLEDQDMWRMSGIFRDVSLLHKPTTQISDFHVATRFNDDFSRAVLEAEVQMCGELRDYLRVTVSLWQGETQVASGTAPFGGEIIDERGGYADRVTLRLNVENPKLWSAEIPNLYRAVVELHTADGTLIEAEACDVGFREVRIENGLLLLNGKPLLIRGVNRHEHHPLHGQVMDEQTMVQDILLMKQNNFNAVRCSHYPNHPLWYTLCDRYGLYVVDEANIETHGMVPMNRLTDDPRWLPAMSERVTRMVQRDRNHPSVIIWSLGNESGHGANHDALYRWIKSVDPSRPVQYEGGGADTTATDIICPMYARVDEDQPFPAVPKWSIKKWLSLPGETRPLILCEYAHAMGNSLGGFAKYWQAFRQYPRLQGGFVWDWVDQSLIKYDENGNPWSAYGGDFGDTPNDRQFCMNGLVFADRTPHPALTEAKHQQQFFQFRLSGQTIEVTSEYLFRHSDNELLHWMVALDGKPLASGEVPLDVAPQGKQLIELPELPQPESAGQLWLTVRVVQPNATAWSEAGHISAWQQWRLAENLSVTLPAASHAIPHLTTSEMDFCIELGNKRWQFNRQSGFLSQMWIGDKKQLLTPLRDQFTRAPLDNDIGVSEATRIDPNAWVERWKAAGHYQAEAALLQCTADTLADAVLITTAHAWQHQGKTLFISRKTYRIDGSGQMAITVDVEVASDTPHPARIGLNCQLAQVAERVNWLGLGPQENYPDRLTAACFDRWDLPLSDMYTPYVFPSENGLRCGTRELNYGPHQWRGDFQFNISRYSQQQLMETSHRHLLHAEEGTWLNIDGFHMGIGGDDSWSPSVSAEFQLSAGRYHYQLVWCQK
Sequence of Eukaryotic translation initiation factor 4E (P63073 whole entry): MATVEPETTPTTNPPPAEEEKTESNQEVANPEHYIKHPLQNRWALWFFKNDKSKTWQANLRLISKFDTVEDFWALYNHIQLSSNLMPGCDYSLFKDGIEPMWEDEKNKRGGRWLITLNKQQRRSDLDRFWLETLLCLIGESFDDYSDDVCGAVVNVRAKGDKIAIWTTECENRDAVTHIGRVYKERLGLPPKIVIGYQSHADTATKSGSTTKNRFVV
Sequence of Paired box protein Pax-8 (Q06710 whole entry): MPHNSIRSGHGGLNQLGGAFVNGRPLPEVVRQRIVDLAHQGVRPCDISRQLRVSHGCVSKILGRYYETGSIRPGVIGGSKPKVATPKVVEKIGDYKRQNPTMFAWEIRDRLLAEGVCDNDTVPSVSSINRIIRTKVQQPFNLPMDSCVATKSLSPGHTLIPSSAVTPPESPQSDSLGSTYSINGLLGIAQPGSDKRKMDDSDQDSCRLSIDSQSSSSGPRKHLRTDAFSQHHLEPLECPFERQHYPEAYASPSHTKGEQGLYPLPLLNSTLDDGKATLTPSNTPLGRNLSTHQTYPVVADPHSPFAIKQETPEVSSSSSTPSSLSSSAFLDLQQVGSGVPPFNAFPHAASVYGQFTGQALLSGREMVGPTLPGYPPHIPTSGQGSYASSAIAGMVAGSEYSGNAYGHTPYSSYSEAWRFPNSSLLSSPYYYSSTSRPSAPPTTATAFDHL
Sequence of Glucose-6-phosphate 1-dehydrogenase (P11413 whole entry): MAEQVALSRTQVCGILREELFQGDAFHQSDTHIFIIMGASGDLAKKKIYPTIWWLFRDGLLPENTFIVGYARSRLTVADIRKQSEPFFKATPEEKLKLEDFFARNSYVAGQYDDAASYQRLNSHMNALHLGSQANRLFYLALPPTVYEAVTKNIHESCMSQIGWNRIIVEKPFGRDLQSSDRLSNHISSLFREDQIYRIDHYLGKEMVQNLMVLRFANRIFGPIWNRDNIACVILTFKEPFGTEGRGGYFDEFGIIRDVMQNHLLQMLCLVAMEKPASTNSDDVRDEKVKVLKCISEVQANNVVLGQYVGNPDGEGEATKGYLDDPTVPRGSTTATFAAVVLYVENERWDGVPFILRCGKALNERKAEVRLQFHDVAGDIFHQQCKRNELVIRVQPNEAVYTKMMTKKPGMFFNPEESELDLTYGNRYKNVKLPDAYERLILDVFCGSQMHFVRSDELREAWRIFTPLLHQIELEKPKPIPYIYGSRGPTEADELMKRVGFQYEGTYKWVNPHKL
Sequence of Dual specificity protein phosphatase 3 (P51452 whole entry): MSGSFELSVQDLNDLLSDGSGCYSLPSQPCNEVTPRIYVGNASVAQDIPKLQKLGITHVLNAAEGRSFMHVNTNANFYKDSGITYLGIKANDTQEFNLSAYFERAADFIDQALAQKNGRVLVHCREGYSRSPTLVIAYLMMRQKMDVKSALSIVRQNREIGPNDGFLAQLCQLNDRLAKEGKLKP

CCOC(=O)N1CCC(N(CCN(C)C)C(=S)Nc2cc(Cl)ccc2C)CC1
IC50 [1]: 11.8 µM (active)
IC50 [2]: 32.2 µM (inactive)
IC50 [3]: 2.14 µM (active)

COc1ccc(C2NCCc3[nH]cnc32)cc1 (stereo not drawn)
EC50 [4]: 3.35 µM (active)

CC(=O)Nc1ccc(S(=O)(=O)NCCSc2ccccn2)cc1
IC50 [5]: > 64 µM (inactive)

CCOC(=O)c1c(C2COc3ccccc3O2)csc1NC(=O)c1ccco1 (stereo not drawn)
IC50 [6]: > 80 µM (inactive)
EC50 (Beta-galactosidase): > 40 µM (inactive)
IC50 [7]: > 40 µM (not active)

Cc1ccc(Cl)cc1N1CCN(CCN)CC1
EC50 [4]: 0.211 µM (active)

COc1ccc(CSCCN)cc1Cl
EC50 [4]: 5.96 µM (active)

Cc1ccc(S(=O)(=O)N2[C@@H](c3ccc(C(C)(C)C)cc3)C(C(=O)O)=CC[C@H]2c2ccc(Cl)c(Cl)c2)cc1
IC50 [8]: 18.8 µM (active)
IC50 [9]: > 66.6 µM (inactive)

COc1ccccc1CC(=O)N1CCN(CCc2ccccc2)CC1
EC50 [4]: 4.22 µM (active)

CCc1ccc(C2CC(c3ccc(F)cc3)Nc3nc(N)nn32)cc1 (stereo not drawn)
EC50 (Melanocortin receptor 4): 48.1 µM (inactive)

CCc1ccc(C(=O)NNc2ccc(C)c(Cl)c2)cc1
EC50 (Beta-galactosidase): > 40 µM (inactive)
IC50 [7]: 2.55 µM (active)

CCCCN(CC)CCCNC(=O)Cn1nc(Cc2cccnc2)c2ccccc2c1=O
EC50 [4]: 1.88 µM (active)

Cc1cc(NC(=O)Cc2ccccc2)c2ccccc2n1
IC50 (Galanin receptor type 3): 1.3 µM (active)
EC50 (cells): > 29.9 µM (inactive)

O=C(Nc1nc2ccc([N+](=O)[O-])cc2s1)C1CCCO1 (stereo not drawn)
AC50 [10]: 0.577 µM (active)
EC50 (H4): > 120 µM (not active)
EC50 [11]: 0.224 µM (active)

Cc1c(-n2cccc2C=O)cccc1[N+](=O)[O-]
IC50 [5]: 50 µM (inactive)

COc1ccc2c(Cl)c(C(=O)NCc3ccco3)sc2c1
AC50 [10]: 0.273 µM (active)

O=C(Cc1ccc(Cl)cc1)OCc1nnc(-c2ccccc2)o1
IC50 [5]: 50 µM (inactive)

O=C(Cc1ccccc1)OCn1nnc2ccccc2c1=O
IC50 [5]: > 64 µM (inactive)

CC(=O)Nc1cc(-c2ccccc2)cn2c(-c3cccc(C(C)=O)c3)cnc12
IC50 (H9c2): > 79 µM (inactive)
EC50 (Melanocortin receptor 4): > 89.2 µM (inactive)

O=C(O)C1=CCC=CC1C(=O)O (stereo not drawn)
IC50 [8]: 5.69 µM (active)
IC50 [9]: > 66.6 µM (inactive)

CC(=O)Nc1cc(-c2ccc(S(C)(=O)=O)cc2)cn2c(-c3ccc(F)c(Cl)c3)cnc12
EC50 (Melanocortin receptor 4): > 89.2 µM (inactive)

COc1cccc(NC(=S)N/N=C2\CC3CCC2(C)C3(C)C)c1 (stereo not drawn)
EC50 (Beta-galactosidase): > 40 µM (inactive)
IC50 [7]: 27.4 µM (not active)

Cc1ccc(S(=O)(=O)N2CC[C@@H]3[C@H](CO)N(C)c4ccc(-c5ccc(C#N)cc5)cc4[C@@H]32)cc1
AC50 [12]: 28.6 µM (active)
AC50 (Paired box protein Pax-8): 7.55 µM (active)
AC50 [13]: 48.4 µM (active)

CN(C)/C=N/c1nc(-c2ccc3c(c2)OCO3)cs1
AC50 [14]: 10.9 µM (active)
AC50 [10]: 3.64 µM (active)
